Assay [1] deals with TRIB3. Description: Relative TRIB3 mRNA in control or FOXO1-silenced MCF7 cells after stressors. The format is cell-based, human. The following applies: FOXO1-shRNA MCF7 cells, in words.
Assay [2] relates to MCF7 cells. The experiment in a line: TRIB3/AKT/FOXO1/SOX2 axis after IL-6, CoCl2 or high glucose, MCF7 cells (WB). The format is cell-based, human. The note with it: MCF7 cells, IL-6 12 hr, high glucose 24 hr, WB.
The test system of assay [3] is TRIB3. Description: TRIB3 expression after cytokines or stressors, MCF7 cells (WB). The format is cell-based, human. The procedure:
(§1) Cycloheximide (CHX; Sigma Aldrich, R750107) was used as a protein synthesis inhibitor to assess the stability of the existing proteins. To assess protein stability, cells were treated with 20 μM CHX and the proteasome inhibitor MG132 (Sigma Aldrich, R750107) at 10 μM or the autophagy inhibitor BAF (Sigma Aldrich, B1793) at 200 nM for the indicated times. Protein expression was assessed via immunoblot analysis with cell lysates (20–60 μg) prepared in RIPA lysis buffer containing protease inhibitors (Roche) using anti-SOX2 (3529), anti-NANOG (4903), anti-OCT4 (2750), anti-KLF4 (4038), anti-c-Myc (13987), anti-FOXO1 (2880), anti-p-FOXO1 (9461), anti-AKT (4685), anti-p-AKT (4060), anti-β-ACTIN (4970), anti-Ubiquitin (3936), or anti-LaminA/C (4777) antibodies from CST; anti-TRIB3 antibody (ab75846) from Abcam; and anti-Trib3 antibody (PA5-15480) from Thermo Fisher Scientific[59]. All antibodies were used at 1:1000 dilution, with the exception of anti-β-Actin antibodies, which were used at 1:2000 dilution. The protein concentrations were determined by BCA Protein Assay Kits (Pierce). Proteins were separated by SDS-polyacrylamide gel electrophoresis (PAGE) and transferred to polyvinylidene difluoride membrane. […]
(f, g) The expression of
TRIB3 in MCF7 cells (top) or MDA-MB-231 cells (bottom) treated with various concentrations of IL6 for
8 hr (f) or 10 ng/ml IL-6 for different amounts of time (g) was detected by WB. (h) Silencing TRIB3
decreased the tumor sphere formation ability of MCF7 cells with or without IL-6 stimulation. […]
Data are shown as the mean ± SEM; P>0.05 was considered not significant (N.S.); *P<0.05, **P<0.01
and ***P<0.001, compared with the con group in panels d-f. Source data are provided as a Source Data

For assay [4], the system named is TRIB3. Description: TRIB3 expression after IL-6, MDA-MB-231 cells (WB). It counts as cell-based. The note with it: various IL-6 concentrations 8 hr, or 10 ng/ml IL-6 for different times. The procedure: as §1, with “All antibodies were used at 1:1000 dilution, with the exception of anti-β-Actin antibodies, which were used at 1:2000 dilution.” left out, “(Pierce).” for “(Pierce). Proteins were separated by SDS-polyacrylamide gel electrophoresis (PAGE) and transferred to polyvinylidene difluoride membrane.”
(GSE12790). Relative amounts of TRIB3 transcripts were measured using the 205805_s_at probe. […]
levels of TRIB3 mRNA. Metastasis-free survival was determined by Kaplan–Meier analyses, and
significant differences were determined by log-rank tests. […]
24 hr, glucose deprivation (DG) for 12 hr, and high glucose (HG) for 24 hr was detected by Western […]
8 hr (f) or 10 ng/ml IL-6 for different amounts of time (g) was detected by WB. […]

Assay [5] has as its system MCF7 cells. The experiment in a line: Mammosphere (tumorsphere) formation, MCF7 cells. The following applies: one week of IL-6, serum-free spheroid suspension culture. The format is cell-based, human.

Experimental findings from paper PMC6915745, “TRIB3 supports breast cancer stemness by suppressing FOXO1 degradation and enhancing SOX2 transcription” (Nature Communications, 2019) are described below.

“Also recorded” adds a separate entry of the source.

On to IL-6: cytokine interleukin (IL)-6, for which the “TRIB3 expression in FOXO1-silenced BCCs” value in assay [1] was “could enhance TRIB3 expression in FOXO1-silenced BCCs”. Also, the “expressions of FOXO1 and SOX2” value in assay [2] (CoCl2 24 hr) is “enhance; also recorded: enhanced expressions of FOXO1 and SOX2”. For the same substance, the “activity of FOXO1 S256” value in assay [2] is reported as “reduced the activity of FOXO1^S256”. The TRIB3 expression entry in assay [3] (cytokines 8 hr, high glucose 24 hr) is “enhanced TRIB3 expression in MCF7 cells”. The “TRIB3 expression, dose- and time-dependence” value in assay [3] (various IL-6 concentrations 8 hr, or 10 ng/ml IL-6 for different times) is “enhanced TRIB3 expression in MCF7 and MDA-MB-231 cells in dose-”; in assay [4] it was “enhanced TRIB3 expression in MCF7 and MDA-MB-231 cells in dose-”. Moreover, the tumorsphere-formation ability entry in assay [5] is given as “increased the tumorsphere-formation ability”.
